Paper PMC6268079, “Synthesis and Biological Evaluation of 2-(3-Fluoro-4-nitro phenoxy)-N-phenylacetamide Derivatives as Novel Potential Affordable Antitubercular Agents” (Molecules, 2012)
≈ marks a conversion by molar mass, not a printed value.

How the values were obtained:
[1] = tested on: Rifampicin-resistant TB 261; assay: microbe, parasite or virus in culture; format: cell-based; conditions: Mycobacterium tuberculosis
[2] = tested on: Isoniazide-resistant TB 242; assay: microbe, parasite or virus in culture; format: cell-based; conditions: Mycobacterium tuberculosis

| SMILES | MIC [1] [µg/mL] | MIC [2] [µg/mL] |
| --- | --- | --- |
| O=C(COc1ccc([N+](=O)[O-])c(F)c1)Nc1ccccc1[N+](=O)[O-] [Compound 3m, 2-(3-Fluoro-4-nitrophenoxy)-N-(2-nitrophenyl)acetamide] | 4 (≈ 11.9 µM) | 32 (≈ 95.5 µM) |
| CO[C@H]1/C=C/O[C@@]2(C)Oc3c(C)c(O)c4c(O)c(c(/C=N/N5CCN(C)CC5)c(O)c4c3C2=O)NC(=O)/C(C)=C\C=C\[C@H](C)[C@H](O)[C@@H](C)[C@@H](O)[C@@H](C)[C@H](OC(C)=O)[C@@H]1C [Rifampicin] | > 32 | ≤ 0.25 |
| COC(=O)COc1ccc(NC(=O)COc2ccc(C)cc2C)cc1 [I, methyl 2-(4-(2-(2,4-dimethylphenoxy)acetamido)phenoxy)acetate] | 4 (≈ 11.6 µM) | 16 (≈ 46.6 µM) |
| NNC(=O)c1ccncc1 [Isoniazide] | 0.125 (≈ 0.911 µM) | 0.5 (≈ 3.65 µM) |
